Data reported in patent US20250134869A1, “Pyrrolo[2,3-d]pyrimidinyl, Pyrrolo[2,3-b]pyrazinyl and Pyrrolo[2,3-d]pyridinyl Acryla-mides” (Pfizer Inc, priority 2021, published 2025).
pIC50: −log10 of the molar value. Read-outs that look alike come from different tables or passages of the source.

Columns and labels:
[1] = tested on: IL-15 induced STAT5 phosphorylation in human whole blood lymphocytes; experiment: HWB IL-15 induced STAT5 phosphorylation assay; type: cell-based; conditions: IL-15 stimulated, read-out: HWB-IL15-pSTAT5 IC50
Description: HWB IL-15 Induced STAT5 Phosphorylation Assay
After mixing and incubating for 45 minutes at 37° C., 5 μl D-PBS (unstimulated control) or 20× stocks of 5 μl human IL-15 (final concentration is 50 ng/ml) were added, and mixed three times. After incubating 15 minutes at 37° C., 1× Lyse/Fix Buffer (BD Phosflow 5× Lyse/Fix Buffer) was added to all wells at 1000 μl/well, then incubated for 20 minutes at 37° C. and spun 5 mins at 1200 rpm. […] Following incubating at 4° C. over night, all the samples were transferred to 96-well polypropylene U-bottom plate, and checked by flow cytometry gated on total lymphocytes.

[2] = Stability of JAK3 covalent inhibitors in human whole blood; conditions: 1 μM, 37° C.
Description: Stability of JAK3 Covalent Inhibitors in Rat and Human Whole Blood
Rat blood was collected from 3 male Sprague-Dawley rats (200-250 g, Charles River Laboratories) and pooled for each study. Human blood was collected from one male and one female healthy subjects at the Occupational Health & Wellness Center at Pfizer, Groton, CT and pooled for each study. Both rat and human blood was collected freshly into K2-EDTA tubes and kept on ice. An aliquot of the blood was transferred to microtubes and pre-warmed for 10 min at 37° C. using a heat block. […] An aliquot of the incubation mixture was removed at designated time points during the course of the incubation, mixed with an aliquot of acetonitrile containing an internal standard, vortexed and centrifuged. The resulting supernatants were removed and subjected to LC-MS/MS analyses to determine parent compound concentrations. Peak area ratios of the parent compound vs the internal standard were used to determine the % of parent compound remaining vs incubation time.

[3] = tested on: IL-15 induced P-STAT5 in human PBMC; experiment: PBMC IL-15 induced P-STAT5; type: cell-based; conditions: read-out: PBMC IL15-pSTAT5 IC50
Description: PBMC IL-15 Induced P-STAT5
Frozen human PBMC (200-250 million cells/vial) was thawed at 37° C. The cells were transferred to 10 mL warm medium in a 50-mL conical tube, and centrifuged at 1,200 RPM at room temperature for 5 min. The supernatant was aspirated. […] After adding 47 ml D-PBS (37° C.) to PBMC/FBS suspension, centrifuging at 1,200 RPM at room temperature for 5 min, and aspirating the supernatant, the cells were resuspended in 20 mL warm RPMI medium. Ninety μL of cell suspension were pipetted per well in a 96-well, deep-well, V-bottom plate, and the plate was incubated at 37° C. for 30 min. […] After adding 0.8 mL staining buffer per well, the plates were centrifuged at 1,200 RPM (Beckman GS-6R or Sorvall Legend) at room temperature for 5 min, and again the supernatant was aspirated using a 8-channel or 12-channel manifold. The plate was vortexed, and 0.35 mL 90% methanol/10% H2O (−20° C.) was added per well, and the plate incubated on ice for 20 min. After again adding 0.8 mL staining buffer per well, the plates were centrifuged at 1,200 RPM (Beckman GS-6R or Sorvall Legend) at room temperature for 5 min, and again the supernatant was aspirated using a 8-channel or 12-channel manifold, and then 0.8 mL Staining buffer was added per well. After once again adding 0.8 mL staining buffer per well, the plates were centrifuged at 1,200 RPM (Beckman GS-6R or Sorvall Legend) at room temperature for 5 min, and again the supernatant was aspirated using a 8-channel or 12-channel manifold. […] Samples of 250 μL/well were transferred to a 96-well U-bottom plate, and the FACS analysis was performed gating on total lymphocytes. Samples were analyzed using a BD Calibur™ or BD FACSCanto™ flow cytometer equipped with the BD High Throughput Sampler.

[4] = molecular target: JAK3 enzyme (Homo sapiens (Human), UniProt P52333); experiment: JAK Caliper Enzyme Assay at 4 μM or 1 mM ATP; type: biochemical
[5] = Homo sapiens, PBMC, human PBMC, IL-15 stimulated
[6] = read-out: JAK3 (4 μM ATP) IC50, 4 μM ATP
[7] = read-out: JAK3 (1 mM ATP) IC50, 1 mM ATP

Chain of JAK3 enzyme (P52333 whole entry, species assumed): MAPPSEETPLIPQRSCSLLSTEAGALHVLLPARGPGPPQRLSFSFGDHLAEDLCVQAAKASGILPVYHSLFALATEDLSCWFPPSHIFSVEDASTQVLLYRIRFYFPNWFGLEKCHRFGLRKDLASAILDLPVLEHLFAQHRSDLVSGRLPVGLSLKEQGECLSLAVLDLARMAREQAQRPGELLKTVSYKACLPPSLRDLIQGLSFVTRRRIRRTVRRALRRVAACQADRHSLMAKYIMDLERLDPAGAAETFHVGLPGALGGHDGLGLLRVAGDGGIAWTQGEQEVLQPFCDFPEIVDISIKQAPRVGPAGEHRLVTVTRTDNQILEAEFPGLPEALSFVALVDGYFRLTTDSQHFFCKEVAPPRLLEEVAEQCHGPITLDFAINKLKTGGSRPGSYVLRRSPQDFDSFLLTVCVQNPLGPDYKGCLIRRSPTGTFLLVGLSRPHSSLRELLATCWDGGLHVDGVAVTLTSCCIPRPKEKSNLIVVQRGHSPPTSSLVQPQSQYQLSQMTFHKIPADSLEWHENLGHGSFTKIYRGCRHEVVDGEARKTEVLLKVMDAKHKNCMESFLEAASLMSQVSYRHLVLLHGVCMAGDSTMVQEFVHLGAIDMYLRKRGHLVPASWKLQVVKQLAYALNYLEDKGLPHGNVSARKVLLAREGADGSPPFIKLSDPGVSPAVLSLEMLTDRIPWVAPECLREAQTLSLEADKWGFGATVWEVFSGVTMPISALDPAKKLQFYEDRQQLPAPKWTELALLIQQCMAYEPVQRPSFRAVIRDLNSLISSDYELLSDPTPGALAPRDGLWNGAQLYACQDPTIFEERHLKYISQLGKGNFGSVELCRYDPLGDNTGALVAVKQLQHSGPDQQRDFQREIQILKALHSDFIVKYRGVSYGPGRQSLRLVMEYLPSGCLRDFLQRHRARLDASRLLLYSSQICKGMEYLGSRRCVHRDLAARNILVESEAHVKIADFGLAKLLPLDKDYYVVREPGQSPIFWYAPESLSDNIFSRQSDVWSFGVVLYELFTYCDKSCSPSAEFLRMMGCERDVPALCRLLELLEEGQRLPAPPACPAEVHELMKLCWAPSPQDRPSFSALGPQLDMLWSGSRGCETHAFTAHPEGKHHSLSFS

pIC50 ([1]; Lymphocyte)	pIC50 [4, 6]	pIC50 [4, 7]	SMILES	further results
< 5.00	10.00	7.71	C=CC(=O)N1CCC(Nc2cnc3[nH]cc(-c4cncc(C#N)c4)c3n2)CC1 [Example 206, 5-{2-[(1-acryloylpiperidin-4-yl)amino]-5H-pyrrolo[2,3-b]pyrazin-7-yl}pyridine-3-carbonitrile]	
< 5.00	9.10	7.16	C=CC(=O)N1CCC(Oc2cnc3[nH]cc(-c4cncc(F)c4)c3n2)CC1 [Example 213, 1-(4-{[7-(5-fluoropyridin-3-yl)-5H-pyrrolo[2,3-b]pyrazin-2-yl]oxy}piperidin-1-yl)prop-2-en-1-one]	
< 5.00	9.15	7.37	C=CC(=O)N1CCC(Oc2cnc3[nH]cc(-c4cccnc4F)c3n2)CC1 [Example 217, 1-(4-{[7-(2-fluoropyridin-3-yl)-5H-pyrrolo[2,3-b]pyrazin-2-yl]oxy}piperidin-1-yl)prop-2-en-1-one]	
< 5.00	9.10	7.15	C=CC(=O)N1CCC(Oc2cnc3[nH]cc(-c4ccnc(C)c4)c3n2)CC1 [Example 220, 1-(4-{[7-(2-methylpyridin-4-yl)-5H-pyrrolo[2,3-b]pyrazin-2-yl]oxy}piperidin-1-yl)prop-2-en-1-one]	
6.27	9.70	7.69	C=CC(=O)N1CCC(Nc2cnc3[nH]cc(C(=O)N[C@@H]4C[C@H]4C(F)(F)F)c3n2)CC1 [Example 233, 2-[(1-acryloylpiperidin-4-yl)amino]-N-[(1R,2R)-2-(trifluoromethyl)cyclopropyl]-5H-pyrrolo[2,3-b]pyrazine-7-carboxamide]	pIC50 ([3]; human PBMC, IL-15 stimulated): 6.67
< 5.00			C=CC(=O)N1CCC(Nc2cnc3[nH]cc(C(=O)NCCCCCCCCC#N)c3n2)CC1 [Example 260, 2-[(1-acryloylpiperidin-4-yl)amino]-N-(8-cyanooctyl)-5H-pyrrolo[2,3-b]pyrazine-7-carboxamide]	
< 5.00			C=CC(=O)N1CCC(Nc2cnc3[nH]cc(C(=O)N[C@H]4CCC[C@H](CC#N)C4)c3n2)CC1 [Example 262, 2-[(1-acryloylpiperidin-4-yl)amino]-N-[(1S,3S)-3-(cyanomethyl)cyclohexyl]-5H-pyrrolo[2,3-b]pyrazine-7-carboxamide]	
< 5.00	9.40	6.94	C=CC(=O)N1CCC(Oc2cnc3[nH]cc(C(=O)NC(C)(C)C)c3n2)CC1 [Example 338, 2-((1-Acryloylpiperidin-4-yl)oxy)-N-(tert-butyl)-5H-pyrrolo[2,3-b]pyrazine-7-carboxamide]	

More lines, now with the values behind:

SMILES	pIC50 ([1]; Lymphocyte)	pIC50 [4, 6]	pIC50 [4, 7]	further results
C=CC(=O)N1C[C@H](C)C[C@@H](Nc2ncnc3[nH]ccc23)C1 (racemic) [Example 65, Rac-1-((3R,5R)-3-((7H-Pyrrolo[2,3-d]pyrimidin-4-yl)amino)-5-methylpiperidin-1-yl)prop-2-en-1-one]	< 5.00			
C=CC(=O)N1C[C@H](Nc2ncnc3[nH]ccc23)CC[C@@H]1CO (single isomer, unassigned) [Example 7]	6.34			Human blood stability t1/2 [2]: >333.5 min; pIC50 [3, 5]: 7.11
C=CC(=O)N1CCC[C@@H](Nc2ccnc3[nH]cc(C#N)c23)C1 [Example 2, (R)-4-((1-acryloylpiperidin-3-yl)amino)-1H-pyrrolo[2,3-b]pyridine-3-carbonitrile]				Human blood stability t1/2: >360.0 min; pIC50 [3]: 7.52; pIC50 ([4]; read-out: JAK3 (4 μM ATP) IC50): 9.70; pIC50 ([4]; read-out: JAK3 (1 mM ATP) IC50): 7.72; pIC50 [1]: 6.66
C=CC(=O)N1CCC[C@@H](Nc2ncnc3[nH]cc(-c4ccc(C(=O)NC5CC5)c(Cl)c4)c23)C1 [Example 31, 4-(4-{[(3R)-1-acryloylpiperidin-3-yl]amino}-7H-pyrrolo[2,3-d]pyrimidin-5-yl)-2-chloro-N-cyclopropylbenzamide]				Human blood stability t1/2: >360.0 min; pIC50 ([4]; read-out: JAK3 (4 μM ATP) IC50): 7.62; pIC50 ([4]; read-out: JAK3 (1 mM ATP) IC50): 5.73
C/C=C/C(=O)N1CCC[C@@H](Nc2ncnc3[nH]ccc23)C1 [Example 105, (2E)-1-[(3R)-3-(7H-pyrrolo[2,3-d]pyrimidin-4-ylamino)piperidin-1-yl]but-2-en-1-one]		5.61	< 5.00	Human blood stability t1/2 [2]: >360.0 min
C=CC(=O)N1C[C@@H](Nc2ncnc3[nH]ccc23)CC[C@H]1CO [Example 117, 1-[(2S,5S)-2-(Hydroxymethyl)-5-(7H-pyrrolo[2,3-d]pyrimidin-4-ylamino)piperidin-1-yl]prop-2-en-1-one]	< 5.00			pIC50 [3, 5]: < 5.00
C=CC(=O)N1CC(Nc2ncnc3[nH]ccc23)CCC1CO (stereo not shown) [Example 118, 1-[2-(Hydroxymethyl)-5-(7H-pyrrolo[2,3-d]pyrimidin-4-ylamino)piperidin-1-yl]prop-2-en-1-one]				Human blood stability t1/2 [2]: >333.5 min; pIC50 ([3]; human PBMC, IL-15 stimulated): < 5.00
C=CC(=O)N1C[C@H](Nc2ncnc3[nH]ccc23)CC[C@@H]1CO [Example 161, 1-[(2R,5R)-2-(Hydroxymethyl)-5-(7H-pyrrolo[2,3-d]pyrimidin-4-ylamino)piperidin-1-y]prop-2-en-1-one]				Human blood stability t1/2 [2]: >323.5 min; pIC50 ([3]; human PBMC, IL-15 stimulated): 7.11; pIC50 [1]: 6.34
C=CC(=O)N1CC2CCN(c3cnc4[nH]cc(C(=O)NC(C)C)c4n3)C2C1 (stereo not shown) [Example 178, 2-(5-acryloylhexahydropyrrolo[3,4-b]pyrrol-1(2H)-yl)-N-(propan-2-yl)-5H-pyrrolo[2,3-b]pyrazine-7-carboxamide]	5.59	8.96	6.99	pIC50 [3, 5]: 6.68
C=CC(=O)N1CC(O)C(Nc2cnc3[nH]cc(C(=O)NC(C)C)c3n2)C1 (stereo not shown) [Example 179, 2-[(1-acryloyl-4-hydroxypyrrolidin-3-yl)amino]-N-(propan-2-yl)-5H-pyrrolo[2,3-b]pyrazine-7-carboxamide]	< 5.00	8.64	6.51	pIC50 ([3]; human PBMC, IL-15 stimulated): < 5.00
C=CC(=O)N[C@H]1C[C@@H](Nc2cnc3[nH]cc(C(=O)NC(C)C)c3n2)C1 [Example 184, 2-{[cis-3-(acryloylamino)cyclobutyl]amino}-N-(propan-2-yl)-5H-pyrrolo[2,3-b]pyrazine-7-carboxamide]	< 5.00	8.82	6.68	
C=CC(=O)N1C[C@@H]2C(Nc3cnc4[nH]cc(C(=O)NC(C)C)c4n3)[C@@H]2C1 (stereo partly drawn) [Example 189, 2-{[(1R,5S,6s)-3-acryloyl-3-azabicyclo[3.1.0]hex-6-yl]amino}-N-(propan-2-yl)-5H-pyrrolo[2,3-b]pyrazine-7-carboxamide]	< 5.00	8.96	6.70	
C=CC(=O)N1CCC(Nc2cnc3[nH]cc(-c4ccc(C)nc4)c3n2)CC1 [Example 199, 1-(4-{[7-(6-methylpyridin-3-yl)-5H-pyrrolo[2,3-b]pyrazin-2-yl]amino}piperidin-1-yl)prop-2-en-1-one]	< 5.00	8.92	7.00	
C=CC(=O)N1CCC(Oc2cnc3[nH]cc(-c4cnn(C)c4)c3n2)CC1 [Example 218, 1-(4-{[7-(1-methyl-1H-pyrazol-4-yl)-5H-pyrrolo[2,3-b]pyrazin-2-yl]oxy}piperidin-1-yl)prop-2-en-1-one]	5.21	9.22	7.09	pIC50 [3, 5]: 6.46
